Measured values reported in patent US20110124588A1, “SYNERGISTIC ACTIVE INGREDIENT COMBINATIONS” (Bayer Cropscience AG, priority 2008, published 2011).
Where two headings read alike, the source gives them in different places.

Tests used:
[1] = tested on: Tetranychus urticae; assay: Tetranychus urticae test (OP-resistant/spray treatment); type: in vivo, greenhouse red spider mite (Tetranychus urticae)
Text: (§1) The expected activity of a given combination of two active compounds can be calculated as follows, according to S. R. Colby, Weeds 15 (1967), 20-22:
(§2) X is the kill rate, expressed as a percentage of the untreated control, when employing active compound A at an application rate of m g/ha or in a concentration of m ppm, Y is the kill rate, expressed as a percentage of the untreated control, when employing active compound B at an application rate of n g/ha or in a concentration of n ppm and E is the kill rate, expressed as a percentage of the untreated control, when employing active compounds A and B at application rates of m and n g/ha or in a concentration of m and n ppm, then
(§3) If the actual kill rate exceeds the calculated value, the kill of the combination is superadditive, i.e. a synergistic effect is present. In this case, the actually observed kill rate must exceed the value calculated using the above formula for the expected kill rate (E).
(§4) solvents: 78 parts by weight of acetone • • 1.5 parts by weight of dimethylformamide emulsifier: 0.5 part by weight of alkylaryl polyglycol ether
(§5) To produce a suitable preparation of active compound, 1 part by weight of active compound is mixed with the stated amounts of solvents and emulsifier, and the concentrate is diluted with emulsifier-containing water to the desired concentration.
Discs of bean leaves (Phaseolus vulgaris) which are infested by all stages of the greenhouse red spider mite (Tetranychus urticae) are sprayed with an active compound preparation of the desired concentration.
After the desired period of time, the activity in % is determined 100% means that all spider mites have been killed; 0% means that none of the spider mites have been killed.

[2] = tested on: Spodoptera frugiperda; assay: Spodoptera frugiperda larvae test (sprayed cabbage leaves); type: in vivo, army worm (Spodoptera frugiperda) larvae; conditions: for pest or weed control at 0.16 g/ha / pest or weed control at 0.8 g/ha / pest or weed control at 20 g/ha / pest or weed control at 4 g/ha / pest or weed control at 100 g/ha: Spodoptera frugiperda
Text: as §1, §2, §3, §4, §5
Cabbage leaves (Brassica oleracea) are treated by spraying with the active compound preparation of the desired concentration and are populated with larvae of the army worm (Spodoptera frugiperda) while the leaves are still moist.
After the desired period of time, the kill in % is determined 100% means that all caterpillars have been killed; 0% means that none of the caterpillars have been killed. The kill rates determined are entered into Colby's formula.

[3] = tested on: Phaedon cochleariae; assay: Phaedon cochleariae larvae test (sprayed cabbage leaves); type: in vivo, mustard beetle (Phaedon cochleariae) larvae; conditions: for pest or weed control at 0.16 g/ha / pest or weed control at 0.8 g/ha / pest or weed control at 4 g/ha / pest or weed control at 20 g/ha / pest or weed control at 100 g/ha: Phaedon cochleariae
Description: as §3
Solvents: 78 parts by weight of acetone • • 1.5 parts by weight of dimethylformamide Emulsifier: 0.5 part by weight of alkylaryl polyglycol ether
After the desired period of time, the kill in % is determined 100% means that all beetle larvae have been killed; 0% means that none of the beetle larvae have been killed. The kill rates determined are entered into Colby's formula.

[4] = tested on: Myzus persicae; assay: Myzus persicae test (spray treatment of infested cabbage leaves); type: in vivo, green peach aphid (Myzus persicae)
Description: as §3, §4
After the desired period of time, the kill in % is determined 100% means that all aphids have been killed; 0% means that none of the aphids have been killed. The kill rates determined are entered into Colby's formula.

[5] = Tetranychus urticae, 48 h, read-out: Kill in % after 2 d
[6] = Tetranychus urticae, 144 h, read-out: Kill in % after 6 d
[7] = 48 h, read-out: Kill in % after 2 d
[8] = 144 h, read-out: Kill in % after 6 d
[9] = 48 h, single active compound, 2 d, read-out: Kill in % after 2 d
[10] = 48 h, single active compound, 0.8 g/ha, 2 d, read-out: Kill in % after 2 d
[11] = 144 h, single active compound, 6 d, read-out: Kill in % after 6 d
[12] = 144 h, single active compound, 0.8 g/ha, 6 d, read-out: Kill in % after 6 d
[13] = Myzus persicae, 24 h, read-out: Kill in % after 1 d
[14] = Myzus persicae, 144 h, read-out: Kill in % after 6 d
[15] = single active compound, 0.8 g/ha, 6 d

CC(c1ccc(C(F)(F)F)nc1)S(C)(=O)=NC#N (stereo not shown) [compound (I-8)]
pest or weed control at 0.8 g/ha [1, 5]: 0% | pest or weed control at 4 g/ha [1, 5]: 0% | pest or weed control at 0.16 g/ha [1, 6]: 0% | pest or weed control at 0.8 g/ha [1, 6]: 0% | pest or weed control at 4 g/ha [1, 6]: 0% | pest or weed control at 20 g/ha [1, 6]: 0% | pest or weed control at 100 g/ha [1, 6]: 0% | pest or weed control at 0.16 g/ha [2, 7]: 0% | pest or weed control at 0.8 g/ha [2, 7]: 0% | pest or weed control at 20 g/ha [2, 7]: 0% | pest or weed control at 0.16 g/ha [2, 8]: 0% | pest or weed control at 0.8 g/ha [2, 8]: 0% | pest or weed control at 4 g/ha [2, 8]: 0% | pest or weed control at 20 g/ha [2, 8]: 0% | pest or weed control at 0.16 g/ha [3, 9]: 0% | pest or weed control at 0.8 g/ha [3, 10]: 0% | pest or weed control at 4 g/ha [3, 9]: 0% | pest or weed control at 20 g/ha [3, 9]: 0% | pest or weed control at 100 g/ha [3, 9]: 67% | pest or weed control at 0.16 g/ha [3, 11]: 0% | pest or weed control at 0.8 g/ha [3, 12]: 0% | pest or weed control at 4 g/ha [3, 11]: 0% | pest or weed control at 20 g/ha [3, 11]: 17% | pest or weed control at 100 g/ha [3, 11]: 67% | pest or weed control at 0.16 g/ha [4, 13]: 0% | pest or weed control at 0.16 g/ha [4, 14]: 60%

CN/C(=N\[N+](=O)[O-])NCC1CCOC1 (stereo not shown) [dinotefuran]
pest or weed control at 20 g/ha [1, 5]: 0% | pest or weed control at 0.8 g/ha [3, 8]: 0% | pest or weed control at 0.8 g/ha [4, 13]: 0%

spinetoram
Kill in % after 2 d ([1]; single active compound, 4 g/ha, after 2 d): 20% | Kill in % after 2 d ([2]; single active compound, 0.16 g/ha, 2 d): 50% | Kill in % after 6 d [3, 15]: 50% | Kill in % after 6 d [4, 15]: 0%

emamectin benzoate
Kill in % after 6 d ([1]; single active compound, 0.032 g/ha, after 6 d): 0% | Kill in % after 2 d ([2]; single active compound, 0.8 g/ha, 2 d): 83% | Kill in % after 6 d ([4]; single active compound, 0.0064 g/ha, 6 d): 0%

CCc1nn(C)c(C(=O)NCc2ccc(C(C)(C)C)cc2)c1Cl [tebufenpyrad]
pest or weed control at 4 g/ha [1, 6]: 40% | pest or weed control at 20 g/ha [3, 11]: 0% | pest or weed control at 0.16 g/ha [4, 14]: 0% | pest or weed control at 0.8 g/ha [4, 14]: 0%

CC1(C)[C@H](C(=O)O[C@H](C#N)c2cccc(Oc3ccccc3)c2)[C@@H]1C=C(Br)Br [deltamethrin]
pest or weed control at 4 g/ha [1, 6]: 0% | pest or weed control at 0.16 g/ha [2, 8]: 17% | pest or weed control at 0.8 g/ha [3, 10]: 67% | pest or weed control at 0.16 g/ha [3, 11]: 50% | pest or weed control at 0.032 g/ha [4, 13]: 0%

CC(c1ccc(Cl)nc1)S(C)(=O)=NC#N (stereo not shown) [compound (I-5)]
pest or weed control at 0.8 g/ha ([1]; Tetranychus urticae, 48 h, single active compound, 0.8 g/ha, after 2 d, read-out: Kill in % after 2 d): 0% | pest or weed control at 4 g/ha ([1]; Tetranychus urticae, 48 h, single active compound, 4 g/ha, after 2 d, read-out: Kill in % after 2 d): 0% | pest or weed control at 4 g/ha ([1]; Tetranychus urticae, 144 h, single active compound, 4 g/ha, after 6 d, read-out: Kill in % after 6 d): 0% | pest or weed control at 20 g/ha ([1]; Tetranychus urticae, 144 h, single active compound, 20 g/ha, after 6 d, read-out: Kill in % after 6 d): 0% | pest or weed control at 100 g/ha ([1]; Tetranychus urticae, 144 h, single active compound, 100 g/ha, after 6 d, read-out: Kill in % after 6 d): 0% | pest or weed control at 0.16 g/ha ([2]; 48 h, single active compound, 0.16 g/ha, 2 d, read-out: Kill in % after 2 d): 0% | pest or weed control at 0.8 g/ha [2, 10]: 0% | pest or weed control at 20 g/ha ([2]; 48 h, single active compound, 20 g/ha, 2 d, read-out: Kill in % after 2 d): 0% | pest or weed control at 100 g/ha [2, 9]: 0% | pest or weed control at 0.8 g/ha [2, 12]: 0% | pest or weed control at 4 g/ha ([2]; 144 h, single active compound, 4 g/ha, 6 d, read-out: Kill in % after 6 d): 0% | pest or weed control at 20 g/ha ([2]; 144 h, single active compound, 20 g/ha, 6 d, read-out: Kill in % after 6 d): 0% | pest or weed control at 100 g/ha [2, 11]: 0% | pest or weed control at 4 g/ha [3, 9]: 0% | pest or weed control at 20 g/ha [3, 9]: 0% | pest or weed control at 0.8 g/ha [3, 12]: 0% | pest or weed control at 4 g/ha [3, 11]: 0% | pest or weed control at 20 g/ha [3, 11]: 0% | pest or weed control at 0.16 g/ha ([4]; Myzus persicae, 24 h, single active compound, 0.16 g/ha, 1 d, read-out: Kill in % after 1 d): 0% | pest or weed control at 0.8 g/ha ([4]; Myzus persicae, 24 h, single active compound, 0.8 g/ha, 1 d, read-out: Kill in % after 1 d): 0% | pest or weed control at 0.16 g/ha ([4]; Myzus persicae, 144 h, single active compound, 0.16 g/ha, 6 d, read-out: Kill in % after 6 d): 0% | pest or weed control at 0.8 g/ha ([4]; Myzus persicae, 144 h, single active compound, 0.8 g/ha, 6 d, read-out: Kill in % after 6 d): 20%

O=C(NC(=O)c1c(F)cccc1F)Nc1ccc(OC(F)(F)C(F)OC(F)(F)F)c(Cl)c1 (stereo not shown) [novaluron]
pest or weed control at 20 g/ha [1, 5]: 0% | pest or weed control at 0.8 g/ha [2, 7]: 33% | pest or weed control at 4 g/ha [4, 14]: 0%

CC1=NNC(=O)N(/N=C/c2cccnc2)C1 [pymetrozine]
pest or weed control at 100 g/ha [1, 6]: 0% | pest or weed control at 0.16 g/ha [4, 14]: 0% | pest or weed control at 0.8 g/ha [4, 14]: 60%
